# Measurements as given in US9181183B2, “Prostaglandin D synthase inhibitory piperidine compounds” (Taiho Pharmaceutical Co., Ltd., priority 2010, dated 2015).
# Target: human H-PGDS (Homo sapiens, UniProt O60760)
# Test: Hematopoietic prostaglandin D synthase (H-PGDS) inhibiting action, [14C]PGH2 to PGD2 conversion, TLC radioassay
# Type: biochemical
# Settings: compound 0.1 μM, inhibition rate relative to solvent control group, [14C] prostaglandin H2 10 μM, 25° C.; for inhibition at 0.1 µM: read-out: H-PGDS inh. (% at 0.1 μM)
# Protocol: The test was carried out according to the method of Urade, Y. et al. (J. Biol. Chem., 262, 3820-3825, (1987)). More specifically, a reaction mixture (49 μL) containing 100 mM Tris-HCl (pH 8.0), 1 mM reduced form glutathione, 0.1 mg/mL γ-globulin, human H-PGDS (q.s.), and a compound (0.1 μM) was preincubated at 25° C. for 5 minutes. A DMSO solution (final concentration: 1%) was added to the solvent control group. Subsequently, 1 μL of [^14C] prostaglandin H2 (final concentration: 10 μM) was added to start the reaction. One minute after the start of the reaction, 250 μL of a reaction stopper solution (diethylether/methanol/1M citric acid (30/4/1)) cooled with ice was added to stop the reaction. After the reaction was stopped, 50 μL of the upper layer portion (organic solvent phase) was applied to a TLC plate and developed at −20° C. for 45 minutes (developing solvent: diethylether/methanol/acetic acid (90/2/1)). After the TLC plate was dried and exposed to an imaging plate for 1 to 24 hours, the radioactivity corresponding to prostaglandin D2 (PGD2) was analyzed using an image analyzer (produced by Fujifilm Corporation). The area (%) occupied by the PGD2 band per lane and the inhibition rate (%) of each Example compound at 0.1 μM relative to the control group in each experiment were calculated.
# human H-PGDS, sequence (O60760 whole entry): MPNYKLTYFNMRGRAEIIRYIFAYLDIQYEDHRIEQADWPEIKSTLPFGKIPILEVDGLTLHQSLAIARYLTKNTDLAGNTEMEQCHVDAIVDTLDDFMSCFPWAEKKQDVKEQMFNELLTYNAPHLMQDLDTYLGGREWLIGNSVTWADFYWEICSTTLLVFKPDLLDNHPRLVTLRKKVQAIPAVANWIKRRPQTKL
Molecule,inhibition at 0.1 µM [%],H-PGDS inh. (% at 0.1 μM) [%]
"CC(C)C(=O)Nc1ccc(NC(=O)N2CCC(=Cc3cc(F)ccc3F)CC2)cc1 [Example 77, 4-(2,5-difluorobenzylidene)-N-(4-isobutyramidophenyl)piperidine-1-carboxamide]",68.1,
"COC(=O)c1ccccc1CNC(=O)N1CCC(=Cc2cc(F)ccc2F)CC1 [Example 78, Methyl 2-((4-(2,5-difluorobenzylidene)piperidine-1-carboxamido)methyl)benzoate]",48.3,
"O=C(Nc1ccc(NC(=O)N2CCC(=Cc3cc(F)ccc3F)CC2)cn1)c1ccccn1 [Example 79, N-(5-(4-(2,5-difluorobenzylidene)piperidine-1-carboxamido)pyridin-2-yl)picolinamide]",56.8,
"O=C(Nc1ccc(NC(=O)N2CCC(=Cc3cc(F)ccc3F)CC2)cn1)c1cscn1 [Example 80, N-(5-(4-(2,5-difluorobenzylidene)piperidine-1-carboxamido)pyridin-2-yl)thiazole-4-carboxamide]",66,
"O=C(Nc1ncc(Cn2cncn2)s1)N1CCC(=Cc2cc(F)ccc2F)CC1 [Example 81, N-(5-((1H-1,2,4-triazol-1-yl)methyl)thiazol-2-yl)-4-(2,5-difluorobenzylidene)piperidine-1-carboxamide]",72.8,
"Cc1nccn1Cc1cnc(NC(=O)N2CCC(=Cc3cc(F)ccc3F)CC2)s1 [Example 82, 4-(2,5-difluorobenzylidene)-N-(5-((2-methyl-1H-imidazol-1-yl)methyl)thiazol-2-yl)piperidine-1-carboxamide]",82.7,
"Cc1nccn1Cc1cnc(NC(=O)N2CCC(=Cc3ccccn3)CC2)s1 [Example 83, N-(5-((2-methyl-1H-imidazol-1-yl)methyl)thiazol-2-yl)-4-(pyridin-2-ylmethylene)piperidine-1-carboxamide]",41.6,
"O=C(Nc1ncc(CN2CCOCC2)s1)N1CCC(=Cc2cc(F)ccc2F)CC1 [Example 84, 4-(2,5-difluorobenzylidene)-N-(5-(morpholinomethyl)thiazol-2-yl)piperidine-1-carboxamide]",78.5,
"O=C(Nc1cnc2ccccc2c1)N1CCC(=Cc2ccccn2)CC1 [Example 85, 4-(pyridin-2-ylmethylene)-N-(quinolin-3-yl)piperidine-1-carboxamide]",35,
N-(4-(2-(4-(pyridin-2-ylmethylene)piperidine-1-carboxamido)thiazol-5-yl)phenyl)morpholin-1-yl-carboxamide [Example 25],,56.4
N-(4-(4-(morpholin-1-yl-carbonyl)piperidin-1-yl)phenyl)-2-(4-(pyridin-2-ylmethylene)piperidine-1-carboxamido)thiazole-5-carboxamide [Example 15],,68.6
N-(4-(morpholin-1-yl-carbonyl)phenyl)-2-(4-(pyridin-2-ylmethylene)piperidine-1-carboxamido)thiazole-5-carboxamide [Example 19],,55.1
N-(5-(4-(cyclopropylcarboxamido)phenyl)thiazol-2-yl)-4-(pyridin-2-ylmethylene)piperidine-1-carboxamide [Example 21],,58.7
N-(5-(morpholin-1-yl-carbonyl)thiazol-2-yl)-4-(pyridin-2-ylmethylene)piperidine-1-carboxamide [Example 13],,48.3
"N-(6-(1H-1,2,3-triazol-1-ylmethyl)acetamide)benzo[d]thiazol-2-yl)-4-(pyridin-2-ylmethylene)-piperidine-1-carboxamide [Example 12]",,52.5
N-(6-(4-morpholin-1-yl-carbonylphenyl)-benzo[d]thiazol-2-yl)-4-(pyridin-2-ylmethylene)-piperidine-1-carboxamide [Example 2],,64.4
"Phenyl 4-(4-(2,5-difluorobenzylidene)piperidine-1-carboxamido) piperidine-1-carboxylate [Example 39]",,62.9
